Results from patent publication US6660752B2, “2,6-Substituted chroman derivatives useful as beta-3 adrenoreceptor agonists” (Bayer Pharmaceuticals Corporation, priority 2001, dated 2003).
Structures can show the parent of a compound that is named as a salt. Where two headings read alike, the source gives them in different places.

Target: T1, human beta-3-adrenergic receptor (Homo sapiens, UniProt P13945)
T1 construct: stably express full-length human beta-3-adrenergic receptor; expressed in transfected cells; host or cells: Chinese hamster ovary (CHO) cells
T1 sequence (P13945 whole entry): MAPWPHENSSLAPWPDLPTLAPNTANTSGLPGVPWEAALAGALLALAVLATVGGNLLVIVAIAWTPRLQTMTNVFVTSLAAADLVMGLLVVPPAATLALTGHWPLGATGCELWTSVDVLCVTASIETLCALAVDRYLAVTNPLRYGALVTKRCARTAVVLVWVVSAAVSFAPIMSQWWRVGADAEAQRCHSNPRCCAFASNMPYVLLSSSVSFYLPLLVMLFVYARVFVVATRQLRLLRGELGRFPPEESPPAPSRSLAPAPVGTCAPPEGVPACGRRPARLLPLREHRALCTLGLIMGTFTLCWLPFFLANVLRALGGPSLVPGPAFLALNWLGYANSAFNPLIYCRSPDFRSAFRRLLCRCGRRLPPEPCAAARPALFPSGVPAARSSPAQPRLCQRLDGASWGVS
Assay: cAMP production (beta-3 agonist activity) in CHO cells stably expressing human beta-3-adrenergic receptor, cAMP SPA
Assay type: cell-based
Conditions: CHO cells expressing full-length human beta-3-adrenergic receptor, 30 min incubation, 10 μM to 3 nM
Description: Chinese hamster ovary (CHO) cells that stably express full-length human beta-3-adrenergic receptor (Granneman et al., Mol. Pharmacol. 44:264-270, 1993) can be used in the following procedure. The cell line is grown in 90% F12 nutrient mixture (HAM), 10% fetal bovine serum, 100 units/ml penicillin G sodium, […] streptomycin sulfate, and 2 mM L-glutamine at 37° C. in 95% air and 5% CO2. The transfected cell line is maintained with G-418 (800 μg/ml).
To test the agonist activity, cells are exposed to test compound and then assayed for cAMP production. CHO cells (100 μl) are plated at 5×10^4 cells/well of a 96-well plate (Costar, Cambridge, Mass.) to achieve 70% confluency the next day. After overnight incubation at 37° C., media is removed and the cells are treated for 30 minutes at 37° C. with KRP buffer (120 mM NaCl, 5.1 mM KCl, 0.6 mM MgSO4.7H2O, 0.8 mM CaCl2.H2O, […] phosphate buffer, […] Hepes pH 7.4)+[…] IBMX ([…]), +1% DMSO, +/− test compounds ([…]). Test compounds are assayed from 10 μM to 3 nM with 3-fold serial dilutions. The control agonist, isoproterenol (10 mM stock in 1.1 mM ascorbate), is assayed by 3-fold dilution beginning at 1 μM. After a 30-minute incubation with the test compounds, the buffer/compound mixture is removed. The cells are lysed and cAMP levels are measured using the cAMP SPA screening assay system (Amersham, Arlington Heights, Ill.). The cAMP values are then plotted to determine the EC50 of each compound tested.

[1] = read-out: Beta-3 Agonistic Activity: Compounds with EC50 values >1 μM
[2] = read-out: Beta-3 Agonistic Activity: Compounds with EC50 values ≦1 μM

SMILES	EC50 [1] [nM]	EC50 [2] [nM]
Nc1ccc([C@@H](O)CNC[C@H]2CCc3cc(C(=O)N4CCC[C@@H]4C(=O)O)ccc3O2)cn1 [Example 367]	> 1000	–
O=C(O)c1ccc(-c2ccc3c(c2)CC[C@H](CNC[C@@H](O)c2cccc(Cl)c2F)O3)cc1 [Example 352]	–	≤ 1000
Cc1ccc(-c2ccc3c(c2)CC[C@H](CNC[C@H](O)c2cccnc2)O3)cc1 [Example 45]	> 1000	–
COc1cc(OC)nc(NS(=O)(=O)c2cc(-c3ccc4c(c3)CC[C@H](CNC[C@H](O)c3cccnc3)O4)ccc2OC)n1 [Example 270]	–	≤ 1000
Nc1ccc(-c2ccc3c(c2)CC[C@H](CNC[C@H](O)c2cccnc2)O3)nc1 [Example 317, (1R)-2-({[(2R)-6-(5-amino-2-pyridinyl)-3,4-dihydro-2H-chromen-2-yl]methyl}amino)-1-(3-pyridinyl)ethanol Tetrahydrochloride]	–	≤ 1000
O[C@@H](CNC[C@H]1CCc2cc(-c3ccccc3C(F)(F)F)ccc2O1)c1cccnc1 [Example 40]	–	≤ 1000
COCCOc1cc(-c2ccc3c(c2)CC[C@H](CNC[C@H](O)c2cccnc2)O3)ccc1C(=O)O [Example 187, 4-[(2R)-2-({[(2R)-2-hydroxy-2-(3-pyridinyl)ethyl]amino}methyl)-3,4-dihydro-2H-chromen-6-yl]-2-(2-methoxyethoxy)benzoic acid]	–	≤ 1000
COc1ccc([C@H](O)CNC[C@H]2CCc3cc(-c4ccc(C(=O)O)cc4)ccc3O2)cn1 [Example 343]	–	≤ 1000

Continued, values first:

EC50 [1] [nM]	EC50 [2] [nM]	SMILES
–	≤ 1000	O=C(Nc1ccccc1)NS(=O)(=O)c1cccc(-c2ccc3c(c2)CC[C@H](CNC[C@H](O)c2cccnc2)O3)c1 [Example 332]
–	≤ 1000	CC(=O)c1ccc(NS(=O)(=O)c2ccc(-c3ccc4c(c3)CC[C@H](CNC[C@H](O)c3cccnc3)O4)cc2OC(F)(F)F)cc1 [Example 263]
–	≤ 1000	COc1cc(C)nc(NS(=O)(=O)c2ccc(-c3ccc4c(c3)CC[C@H](CNC[C@H](O)c3cccnc3)O4)cc2)n1 [Example 273, 4-[(2R)-2-({[(2R)-2-hydroxy-2-(3-pyridinyl)ethyl]amino}methyl)-3,4-dihydro-2H-chromen-6-yl]-N-(4-methoxy-6-methyl-2-pyrimidinyl)benzenesulfonamide]
–	≤ 1000	O=C(CC(F)(F)F)NS(=O)(=O)c1ccc(-c2ccc3c(c2)CC[C@H](CNC[C@H](O)c2cccnc2)O3)cc1 [Example 284, 4-[(2R)-2-({[(2R)-2-hydroxy-2-(3-pyridinyl)ethyl]amino}methyl)-3,4-dihydro-2H-chromen-6-yl]-N-(3,3,3-trifluoropropanoyl)benzenesulfonamide]
–	≤ 1000	NS(=O)(=O)c1ccc(-c2ccc3c(c2)CC[C@H](CNC[C@H](O)c2cccnc2)O3)cc1 [Example 325, 4-[(2R)-2-({[(2R)-2-hydroxy-2-(3-pyridinyl)ethyl]amino}methyl)-3,4-dihydro-2H-chromen-6-yl]benzenesulfonamide]
–	≤ 1000	O=C1CCc2cc(NS(=O)(=O)c3cccc(-c4ccc5c(c4)CC[C@H](CNC[C@H](O)c4cccnc4)O5)c3)ccc21 [Example 255]
–	≤ 1000	O=C(Nc1cccc(C(F)(F)F)c1)NS(=O)(=O)c1cccc(-c2ccc3c(c2)CC[C@H](CNC[C@H](O)c2cccnc2)O3)c1 [Example 337]
–	≤ 1000	CCOC(=O)c1ccc(Oc2cc(-c3ccc4c(c3)CC[C@H](CNC[C@H](O)c3cccnc3)O4)ccc2C(=O)O)cc1 [Example 197, 2-[4-(ethoxycarbonyl)phenoxy]-4-[(2R)-2-({[(2R)-2-hydroxy-2-(3-pyridinyl)ethyl]amino}methyl)-3,4-dihydro-2H-chromen-6-yl]benzoic acid]
–	≤ 1000	CC(C)(C)CC(=O)NS(=O)(=O)c1ccc(-c2ccc3c(c2)CC[C@H](CNC[C@H](O)c2cccnc2)O3)cc1 [Example 287, N-(3,3-dimethylbutanoyl)-4-[(2R)-2-({[(2R)-2-hydroxy-2-(3-pyridinyl)ethyl]amino}methyl)-3,4-dihydro-2H-chromen-6-yl]benzenesulfonamide]
